Source: patent US11452764B2, “Inhibiting FAK-AKT interaction to inhibit metastasis” (Board of Trustees of Michigan State University, priority 2017, dated 2022)
“Also recorded” adds a separate entry of the source.

How the values were obtained:
[1] = system: SW620 colon cancer cells; assay: Adhesion assay of SW620 cells to collagen I at ambient or 15 mmHg increased pressure (ZINC compounds); assay type: cell-based, human; details: 30 minutes; for Concentration at which pressure stimulated adhesion was blocked / Pressure stimulated adhesion: 15 mmHg; for Pressure stimulated adhesion / Basal adhesion: concentrations studied 10-200 μM (per compound in Table 3); for Basal adhesion: ambient pressure
Protocol: (§1) Extracellular pressure was increased by 15 mmHg over ambient pressure using a temperature and pressure-controlled box as described by Basson et al. (J Cell Biochem, 78: 47-61 (2000)).
Cells were seeded in an amount of 50,000 cells/well into 24 well plates precoated with collagen I (Sigma, St. Louis, Mo., USA) at 37° C. under ambient or 15 mmHg increased pressure as described by Basson et al. J Cell Biochem 78: 47-61 (2000)). After 30 minutes, non-adherent cells were washed away. Adherent cells were stained with MTS (CellTiter 96® AQueous One Solution Cell Proliferation Assay, Madison, Wis., USA) and plates were read at 490 nm.
Seven molecules were studied that structurally mimic AAHPSEE (SEQ ID NO:24), including five analogs of ZINC04085549 (FIG. 16A-16G). These molecules' effects on basal and pressure-stimulated human SW620 colon cancer cell adhesion to collagen I were assayed first. Most molecules had no effect at the concentrations studied (Table 3).

[2] = system: FAK-Tyr-397 phosphorylation; assay: FAK-Y397 western blotting in suspended SW620 cells at ambient or 15 mmHg increased pressure (ZINC compounds); assay type: cell-based, human; details: 50 μM
From the text: as §1
Cells were maintained at ambient or increased pressure in bacteriologic plastic dishes pacificated with heat-inactivated bovine serum albumin to prevent adhesion and avoid adhesion-associated background FAK activation. Cells were lysed in lysis buffer, resolved by 10% SDS-PAGE, transferred to nitrocellulose and blotted with antibody to Tyr-397-phosphorylated FAK (rabbit monoclonal ab81298, Abcam, San Francisco, Calif., USA) and anti-rabbit 680 (LI-COR Inc. Lincoln, Nebr., USA), before quantitation using Kodak Scientific Imaging Systems 1D, V.3.5.4 (Zeng et al., Oncotarget, 8 98051-98067 (2017)). Total FAK (Anti-FAK, clone 4.47 Merck, Darmstadt, Germany with secondary anti-mouse 800, LI-COR Inc. Lincoln, Nebr., USA) served as a loading control. FAK and Tyr-397-phosphorylated FAK western blots yielded doublets similar to those previously observed by others (McConnell et al. Mol Cancer 10: 75 (2011); Aflaki et al. Cell Mol Life Sci, 68: 3933-3947 (2011)); Das et al. Cancer Res, 72: 6217-6226 (2012); Ammoun et al. Oncogene, 31: 1710-1722 (2012)). Both bands were quantitated together.
Four structurally similar molecules to the FAK-derived sequence LAHPP (SEQ ID NO:25) (Table 2) were evaluated for their ability to prevent FAK activation by 15 mmHg increased extracellular pressure in human SW620 colon cancer cells. […] The structures of these compounds are shown below (and in FIG. 17).

[3] = target: Akt1 (Homo sapiens, UniProt P31749); details: Zeng et al., Oncotarget 2017; cited from earlier work
Sequence of Akt1 (P31749 whole entry, species assumed): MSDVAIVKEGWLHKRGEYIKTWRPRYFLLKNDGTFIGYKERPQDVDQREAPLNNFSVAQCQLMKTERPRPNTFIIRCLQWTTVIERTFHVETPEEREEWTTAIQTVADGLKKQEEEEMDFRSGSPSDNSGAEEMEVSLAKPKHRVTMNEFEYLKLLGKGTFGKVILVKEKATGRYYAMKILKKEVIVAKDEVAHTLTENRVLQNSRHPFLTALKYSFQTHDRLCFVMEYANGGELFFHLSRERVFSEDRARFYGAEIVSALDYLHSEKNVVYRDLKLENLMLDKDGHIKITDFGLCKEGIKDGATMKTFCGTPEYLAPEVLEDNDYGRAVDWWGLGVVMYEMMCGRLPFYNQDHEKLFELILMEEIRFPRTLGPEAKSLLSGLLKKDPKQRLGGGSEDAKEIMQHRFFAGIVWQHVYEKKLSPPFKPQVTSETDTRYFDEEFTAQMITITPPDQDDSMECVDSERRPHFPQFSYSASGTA

| Molecule | Concentration at which pressure stimulated adhesion was blocked [1] [µM] | Pressure stimulated adhesion [1] | Basal adhesion [1] | Basal ambient pressure FAK-Tyr-397 phosphorylation ([2]; suspended SW620) | Pressure-stimulated FAK-Tyr-397 phosphorylation ([2]; suspended SW620, 15 mmHg) | Competition with FAK for binding to AKT1 [3] |
| --- | --- | --- | --- | --- | --- | --- |
| Cc1ccccc1C(=O)O/N=C1\CCCCC1c1ccc([N+](=O)[O-])cc1[N+](=O)[O-] (stereo not drawn) [ZINC04085549] | ≥50 | prevented pressure-stimulated increases in SW620 adhesion; also recorded: Blocked | without altering basal adhesiveness at ambient pressure; also recorded: Maintained | without affecting basal ambient pressure FAK-Tyr-397 phosphorylation | prevented pressure-stimulated FAK-Tyr-397 phosphorylation | – |
| AAHPSEE [two-site mutant of FAK residues 113-119, more helical analog used as screening query] | – | – | – | – | – | effectively compete with FAK for binding to AKT1 |
| COc1ccc(C(=O)O/N=C2\CCCCC2c2ccc([N+](=O)[O-])cc2[N+](=O)[O-])cc1 (stereo not drawn) [ZINC4085554] | ≥50 | prevented pressure-stimulated increases in SW620 adhesion; also recorded: Blocked | without altering basal adhesiveness at ambient pressure; also recorded: Maintained | – | – | – |
